According to PubChem BioAssay AID1259407 (Chemical Carcinogenesis Research Information System (CCRIS), 2018):
The source made the active and inactive calls. The rule behind the calls is not given here.

Tested on: CCRIS mutagenicity, Ames/micronucleus/aberration tests
Experiment: CCRIS mutagenicity studies
[1] = Test System: AMES SALMONELLA TYPHIMURIUM, Strain/Indicator: TA98, Metabolic Activation: NONE, Method: STANDARD PLATE
[2] = Test System: AMES SALMONELLA TYPHIMURIUM, Strain/Indicator: TA100, Metabolic Activation: NONE, Method: STANDARD PLATE
[3] = Test System: AMES SALMONELLA TYPHIMURIUM, Strain/Indicator: TA1535, Metabolic Activation: NONE, Method: STANDARD PLATE
[4] = Test System: AMES SALMONELLA TYPHIMURIUM, Strain/Indicator: TA1537, Metabolic Activation: NONE, Method: STANDARD PLATE
[5] = Test System: AMES SALMONELLA TYPHIMURIUM, Strain/Indicator: TA1538, Metabolic Activation: NONE, Method: STANDARD PLATE

Measured: mutagenic call

C[Si](C)(C)O[Si](C)(C)C
inactive: [1] inactive; negative | Test System: AMES SALMONELLA TYPHIMURIUM, Strain/Indicator: TA98, Metabolic Activation: RAT LIVER S-9, AROCLOR 1254, Method: STANDARD PLATE inactive; negative | [2] inactive; negative | Test System: AMES SALMONELLA TYPHIMURIUM, Strain/Indicator: TA100, Metabolic Activation: RAT LIVER S-9, AROCLOR 1254, Method: STANDARD PLATE inactive; negative | [3] inactive; negative | Test System: AMES SALMONELLA TYPHIMURIUM, Strain/Indicator: TA1535, Metabolic Activation: RAT LIVER S-9, AROCLOR 1254, Method: STANDARD PLATE inactive; negative | [4] inactive; negative | Test System: AMES SALMONELLA TYPHIMURIUM, Strain/Indicator: TA1537, Metabolic Activation: RAT LIVER S-9, AROCLOR 1254, Method: STANDARD PLATE inactive; negative | [5] inactive; negative | Test System: AMES SALMONELLA TYPHIMURIUM, Strain/Indicator: TA1538, Metabolic Activation: RAT LIVER S-9, AROCLOR 1254, Method: STANDARD PLATE inactive; negative | Test System: E. COLI, Strain/Indicator: P3078 POLA, Metabolic Activation: NONE, Method: SPOT TEST inactive; negative | Test System: E. COLI, Strain/Indicator: P3078 POLA, Metabolic Activation: RAT LIVER S-9, AROCLOR 1254, Method: SPOT TEST inactive; negative | Test System: E. COLI, Strain/Indicator: W3110, Metabolic Activation: NONE, Method: SPOT TEST inactive; negative | Test System: E. COLI, Strain/Indicator: W3110, Metabolic Activation: RAT LIVER S-9, AROCLOR 1254, Method: SPOT TEST inactive; negative | Test System: MOUSE LYMPHOMA, Strain/Indicator: L5178Y (TK+/TK-), Metabolic Activation: NONE, Method: SUSPENSION/PLATE inactive; negative | Test System: MOUSE LYMPHOMA, Strain/Indicator: L5178Y (TK+/TK-), Metabolic Activation: RAT, LIVER, S-9, Method: SUSPENSION/PLATE inactive; negative

Cc1cc(N)cc(C)c1N
inactive: [1] inactive; negative | Test System: AMES SALMONELLA TYPHIMURIUM, Strain/Indicator: TA98, Metabolic Activation: RAT, LIVER, S-9, AROCLOR 1254, Method: STANDARD PLATE inactive; negative | [2] inactive; negative | Test System: AMES SALMONELLA TYPHIMURIUM, Strain/Indicator: TA100, Metabolic Activation: RAT, LIVER, S-9, AROCLOR 1254, Method: STANDARD PLATE inactive; negative | [3] inactive; negative | Test System: AMES SALMONELLA TYPHIMURIUM, Strain/Indicator: TA1535, Metabolic Activation: RAT, LIVER, S-9, AROCLOR 1254, Method: STANDARD PLATE inactive; negative | [4] inactive; negative | Test System: AMES SALMONELLA TYPHIMURIUM, Strain/Indicator: TA1537, Metabolic Activation: RAT, LIVER, S-9, AROCLOR 1254, Method: STANDARD PLATE inactive; negative | [5] inactive; negative | Test System: AMES SALMONELLA TYPHIMURIUM, Strain/Indicator: TA1538, Metabolic Activation: RAT, LIVER, S-9, AROCLOR 1254, Method: STANDARD PLATE inactive; negative
